Entries after “also recorded” stand apart in the source; their conditions may differ.
These substances were tested on NCI-60 cell lines.
Format: cell-based, human

**Q.** How did the “Cell Line the peptide is associated with (peptide recovered from phage library selection on this NCI-60 cell line)” value turn out when LMLVSGK was run?
**A.** NCI/ADR-RES Breast

**Q.** With GGVLYLE as the substance, how does the “Cell Line with which the peptide (and its tripeptide motif) is associated” value (from here on “Cell Line with which the peptide”) read?
**A.** H226-Lung

**Q.** With WAGSNYS as the substance, how does the “Cell Line (NCI-60 cell line the peptide is associated with)” value read?
**A.** SNB-75 CNS

**Q.** PLAVSMV was tested. Which “Cell Line with which the peptide” value did it give?
**A.** SR Leukemia

**Q.** For GGSVRHV, which “Cell Line with which the peptide” value is on record?
**A.** RPMI-8226-Leukemia

**Q.** For LGSSRVL, which “Cell Line with which the peptide” value is on record?
**A.** Hop-92-Lung

**Q.** Which “Cell Line (NCI-60 cell line the peptide and its motif are associated with)” value does the source give for GVNGSVS here?
**A.** SK-MEL-28 Melanoma

**Q.** LSLRGGL was tested. Which “Cell Line the peptide is associated with (peptide recovered from phage library selection on this NCI-60 cell line)” value did it give?
**A.** MDA-MB-231 Breast

**Q.** Which “Cell Line with which the peptide” value does the source give for GGSRLLL here?
**A.** RPMI-8226-Leukemia

**Q.** How did the “Cell Line (NCI-60 cell line the peptide and its motif are associated with)” value turn out when SVTGSVG was run?
**A.** IGROV1 Ovarian

**Q.** With FTSGVSW as the substance, how does the “Cell Line (NCI-60 cell line the peptide is associated with)” value read?
**A.** COLO-205-Colon

**Q.** With WRGGLDR as the substance, how does the “Cell Line the peptide is associated with (peptide recovered from phage library selection on this NCI-60 cell line)” value read?
**A.** MCF-7 Breast

**Q.** With VGSVVGR as the substance, how does the “Cell Line with which the peptide” value read?
**A.** Hop-92-Lung

**Q.** Which “Cell Line (NCI-60 cell line the peptide and its motif are associated with)” value does the source give for GGRVRGG here?
**A.** OVCAR-4 Ovarian

**Q.** Which “Cell Line the peptide is associated with (peptide recovered from phage library selection on this NCI-60 cell line)” value does the source give for GSGRQLP here?
**A.** BT-549 Breast

**Q.** With RGVSGRL as the substance, how does the “Cell Line (NCI-60 cell line the peptide and its motif are associated with)” value read?
**A.** SK-MEL-28 Melanoma

**Q.** With YLAGGKA as the substance, how does the “Cell Line (NCI-60 cell line the peptide and its motif are associated with)” value read?
**A.** IGROV1 Ovarian

**Q.** Which “Cell Line with which the peptide” value does the source give for ANGVLEL here?
**A.** Molt-4-Leukemia

**Q.** For FAAGAGS, which “Cell Line (NCI-60 cell line the peptide and its motif are associated with)” value is on record?
**A.** 786-0 Renal

**Q.** How did the “Cell Line (NCI-60 cell line the peptide is associated with)” value turn out when LRVPGGP was run?
**A.** KM-12C Colon

**Q.** How did the “Cell Line (NCI-60 cell line the peptide is associated with)” value turn out when ARGSLRV was run?
**A.** SNB-19 CNS; also recorded: SF-539 CNS

**Q.** THVGGVR was tested. Which “Cell Line (NCI-60 cell line the peptide and its motif are associated with)” value did it give?
**A.** OVCAR-8 Ovarian

**Q.** FAGRAPR was tested. Which “Cell Line the peptide is associated with (peptide recovered from phage library selection on this NCI-60 cell line)” value did it give?
**A.** ACHN Renal

**Q.** How did the “Cell Line the peptide is associated with (peptide recovered from phage library selection on this NCI-60 cell line)” value turn out when GPGGSKR was run?
**A.** SN12C Renal

**Q.** How did the “Cell Line (NCI-60 cell line the peptide is associated with)” value turn out when QWYSLRS was run?
**A.** LOX-IMVI Melanoma

**Q.** GRLDAFG was tested. Which “Cell Line (NCI-60 cell line the peptide and its motif are associated with)” value did it give?
**A.** SK-MEL-5 Melanoma

**Q.** With LGGRLSL as the substance, how does the “Cell Line the peptide is associated with (peptide recovered from phage library selection on this NCI-60 cell line)” value read?
**A.** MDA-MB-231 Breast

**Q.** For GRGVLAF, which “Cell Line (NCI-60 cell line the peptide is associated with)” value is on record?
**A.** KM-12C Colon

**Q.** For GLSRGVL, which “Cell Line the peptide is associated with (peptide recovered from phage library selection on this NCI-60 cell line)” value is on record?
**A.** ACHN Renal

**Q.** GGYWLRS was tested. Which “Cell Line (NCI-60 cell line the peptide and its motif are associated with)” value did it give?
**A.** M14 Melanoma

**Q.** With AASVGVA as the substance, how does the “Cell Line the peptide is associated with (peptide recovered from phage library selection on this NCI-60 cell line)” value read?
**A.** MDA-MB-231 Breast

**Q.** With GSWARGY as the substance, how does the “Cell Line (NCI-60 cell line the peptide is associated with)” value read?
**A.** HCT-15 Colon

**Q.** How did the “Cell Line the peptide is associated with (peptide recovered from phage library selection on this NCI-60 cell line)” value turn out when RLETLLS was run?
**A.** UO31 Renal

**Q.** Which “Cell Line the peptide is associated with (peptide recovered from phage library selection on this NCI-60 cell line)” value does the source give for LLSRAQA here?
**A.** BT-549 Breast

**Q.** Which “Cell Line the peptide is associated with (peptide recovered from phage library selection on this NCI-60 cell line)” value does the source give for GEGSGSA here?
**A.** MDA-MB-435-Breast

**Q.** For GSVLMRG, which “Cell Line (NCI-60 cell line the peptide and its motif are associated with)” value is on record?
**A.** OVCAR-4 Ovarian

**Q.** How did the “Cell Line with which the peptide” value turn out when GTFGVLG was run?
**A.** Hop-62-Lung

**Q.** For GLVRCVL, which “Cell Line (NCI-60 cell line the peptide is associated with)” value is on record?
**A.** COLO-205-Colon

**Q.** For GGGSGGG, which “Cell Line (NCI-60 cell line the peptide and its motif are associated with)” value is on record?
**A.** OVCAR-4 Ovarian

**Q.** GVGGRQS was tested. Which “Cell Line the peptide is associated with (peptide recovered from phage library selection on this NCI-60 cell line)” value did it give?
**A.** TK-10 Renal

**Q.** Which “Cell Line with which the peptide” value does the source give for AVLVAGG here?
**A.** CCRF-CEM Leukemia

**Q.** Which “Cell Line the peptide is associated with (peptide recovered from phage library selection on this NCI-60 cell line)” value does the source give for GAGTSEG here?
**A.** TK-10 Renal

**Q.** MLASAGR was tested. Which “Cell Line with which the peptide” value did it give?
**A.** HL-60-Leukemia

**Q.** With RGVNYRS as the substance, how does the “Cell Line the peptide is associated with (peptide recovered from phage library selection on this NCI-60 cell line)” value read?
**A.** RXF393 Renal

**Q.** How did the “Cell Line (NCI-60 cell line the peptide and its motif are associated with)” value turn out when RGRVLLP was run?
**A.** M14 Melanoma

**Q.** How did the “Cell Line with which the peptide” value turn out when ARAMGLR was run?
**A.** Hop-62-Lung

**Q.** For RKEALRV, which “Cell Line the peptide is associated with (peptide recovered from phage library selection on this NCI-60 cell line)” value is on record?
**A.** CAIK-1 Renal

**Q.** How did the “Cell Line with which the peptide” value turn out when AGVFAVS was run?
**A.** HL-60-Leukemia

**Q.** Which “Cell Line with which the peptide” value does the source give for GSSRQFV here?
**A.** A549-Lung

**Q.** For RGGQRAS, which “Cell Line (NCI-60 cell line the peptide and its motif are associated with)” value is on record?
**A.** M14 Melanoma

**Q.** With FGVSQVH as the substance, how does the “Cell Line the peptide is associated with (peptide recovered from phage library selection on this NCI-60 cell line)” value read?
**A.** CAIK-1 Renal

**Q.** How did the “Cell Line (NCI-60 cell line the peptide and its motif are associated with)” value turn out when SQFGPSF was run?
**A.** SK-OV-3-3 Ovarian

**Q.** Which “Cell Line with which the peptide” value does the source give for DVRAVSS here?
**A.** EKVX-Lung

**Q.** AGRHLDA was tested. Which “Cell Line the peptide is associated with (peptide recovered from phage library selection on this NCI-60 cell line)” value did it give?
**A.** HS 578 T Breast

**Q.** For DYVGAGT, which “Cell Line (NCI-60 cell line the peptide and its motif are associated with)” value is on record?
**A.** DU-145 Prostate

**Q.** SGIGSGG was tested. Which “Cell Line with which the peptide” value did it give?
**A.** Hop-92-Lung

**Q.** SEQRGGL was tested. Which “Cell Line the peptide is associated with (peptide recovered from phage library selection on this NCI-60 cell line)” value did it give?
**A.** ACHN Renal

**Q.** How did the “Cell Line (NCI-60 cell line the peptide and its motif are associated with)” value turn out when GGLRVGG was run?
**A.** PC3 Prostate

**Q.** Which “Cell Line with which the peptide” value does the source give for WSAGGPH here?
**A.** SR Leukemia

**Q.** How did the “Cell Line the peptide is associated with (peptide recovered from phage library selection on this NCI-60 cell line)” value turn out when SRLRAGS was run?
**A.** T-47D Breast

**Q.** Which “Cell Line the peptide is associated with (peptide recovered from phage library selection on this NCI-60 cell line)” value does the source give for AVYVGRL here?
**A.** NCI/ADR-RES Breast

**Q.** HAGLLVV was tested. Which “Cell Line the peptide is associated with (peptide recovered from phage library selection on this NCI-60 cell line)” value did it give?
**A.** TK-10 Renal

**Q.** DAGRTID was tested. Which “Cell Line with which the peptide” value did it give?
**A.** Hop-62-Lung

**Q.** For SVEGRGV, which “Cell Line with which the peptide” value is on record?
**A.** A549-Lung

**Q.** For FMGAGFA, which “Cell Line with which the peptide” value is on record?
**A.** HL-60-Leukemia

**Q.** AASSWAV was tested. Which “Cell Line (NCI-60 cell line the peptide and its motif are associated with)” value did it give?
**A.** M14 Melanoma

**Q.** Which “Cell Line (NCI-60 cell line the peptide and its motif are associated with)” value does the source give for LKAGLRS here?
**A.** OVCAR-5 Ovarian

**Q.** Which “Cell Line with which the peptide” value does the source give for SGSRVSL here?
**A.** HL-60-Leukemia

**Q.** How did the “Cell Line the peptide is associated with (peptide recovered from phage library selection on this NCI-60 cell line)” value turn out when RAGGGAP was run?
**A.** ACHN Renal

**Q.** For HLRSGFS, which “Cell Line (NCI-60 cell line the peptide and its motif are associated with)” value is on record?
**A.** DU-145 Prostate

**Q.** With AARGVMV as the substance, how does the “Cell Line (NCI-60 cell line the peptide and its motif are associated with)” value read?
**A.** SK-MEL-2 Melanoma

**Q.** With RRFWAGL as the substance, how does the “Cell Line with which the peptide” value read?
**A.** H460-Lung

**Q.** Which “Cell Line (NCI-60 cell line the peptide is associated with)” value does the source give for AASTRSL here?
**A.** MALME-3M Melanoma

**Q.** Which “Cell Line (NCI-60 cell line the peptide is associated with)” value does the source give for GWSASLG here?
**A.** HCT-116 Colon

**Q.** For TCGGRSY, which “Cell Line (NCI-60 cell line the peptide and its motif are associated with)” value is on record?
**A.** SK-MEL-2 Melanoma

**Q.** RSSGLGF was tested. Which “Cell Line with which the peptide” value did it give?
**A.** Hop-62-Lung

**Q.** For AGGPTKY, which “Cell Line with which the peptide” value is on record?
**A.** SR Leukemia

**Q.** With LVSSGSK as the substance, how does the “Cell Line with which the peptide” value read?
**A.** HL-60-Leukemia

**Q.** SLRGVRV was tested. Which “Cell Line (NCI-60 cell line the peptide and its motif are associated with)” value did it give?
**A.** UACC62 Melanoma

**Q.** For SAGLLPS, which “Cell Line (NCI-60 cell line the peptide and its motif are associated with)” value is on record?
**A.** OVCAR-5 Ovarian
